A word on the melting point: it is the temperature, or range, at which the solid turns liquid.

`COc1ccc(N(Cc2ccc(=O)[nH]c2)c2ccc(C(=O)O)cc2)cc1OC1CCCC1` [Compound 29] showed a melting point of 143.7 to 145.9 °C.

The molecule `COc1cc(N(Cc2cccnc2)c2ccc(C(=O)O)cc2)ccc1OC(F)F` [Compound 124] came in with a melting point of 182.4 to 183.4 °C.

`CCOc1cc(N(Cc2cncnc2)c2ccc(C(=O)O)cc2)ccc1OC(F)F` [Compound 143] returned a melting point of 165.3 to 165.9 °C. On to `CC(C)Oc1cc(N(Cc2cncs2)c2cccc(C(=O)O)c2)ccc1OC(F)F` [Compound 109], for which the melting point lay within 58.6 to 60 °C. Molecule `COc1ccc(N(Cc2cncs2)c2ccc(C(=O)O)cc2)cc1OC` [Compound 138] registered a melting point of 86.4 to 88.3 °C. Under `O=C(O)c1ccc(N(Cc2cnco2)c2ccc(OC(F)F)c(OC(F)F)c2)cc1` [Compound 141] stands 132.4 to 135 °C; under `CC(C)Oc1cc(N(Cc2cccnc2)c2cccc(C(=O)O)c2)ccc1OC(F)F` [Compound 108], 57.3 to 58.9 °C. Next, `COc1ccc(N(Cc2cscn2)c2cccc(C(=O)O)c2)cc1OC1CCCC1` [Compound 45]: 75.5 to 77.7 °C. Next, `O=C(O)c1cccc(N(Cc2cnco2)c2ccc(OC(F)F)c(OCC3CC3)c2)c1` [Compound 198]: 60.2 to 61 °C; `CC(C)Oc1cc(N(Cc2cnccn2)c2cccc(C(=O)O)c2)ccc1OC(F)F` [Compound 156]: 81.2 to 82 °C. The molecule `O=C(O)c1ccc(N(Cc2cncnc2)c2ccc(OC(F)F)c(OC(F)F)c2)cc1` [Compound 80] came in with a melting point of 186.7 to 187.4 °C. Under `COc1ccc(N(Cc2cncs2)c2ccc(C(=O)O)cc2)cc1OC(C)C` [Compound 131] stands 67.8 to 69.1 °C; under `COc1ccc(N(Cc2cnco2)c2ccc(C(=O)O)cc2)cc1OC1CCC1` [Compound 184], 148 to 150.3 °C. Next, `O=C(O)c1cccc(N(Cc2cnccn2)c2ccc(OC(F)F)c(OCC3CC3)c2)c1` [Compound 159]: 72.7 to 73.1 °C; `COc1ccc(N(Cc2cnc(N(C)C)nc2)c2cccc(C(=O)O)c2)cc1OC1CCCC1` [Compound 52]: 82 to 84.7 °C. Molecule `COc1ccc(N(Cc2cncnc2)c2ccc(C(=O)O)cc2)cc1OC(C)C` [Compound 192] gave a melting point of 181.7 to 183.6 °C. Next, `CC(C)Oc1cc(N(Cc2cncs2)c2cncc(C(=O)O)c2)ccc1OC(F)F` [Compound 160]: 121.7 to 123.1 °C; `COc1ccc(N(Cc2cncs2)c2ccc(C(=O)O)cc2)cc1OC1CCCC1` [Compound 40]: 88 to 90.3 °C; `COc1ccc(N(Cc2cncnc2)c2ccc(C(=O)O)cc2)cc1OC1CCC1` [Compound 193]: 174 to 177.9 °C.

For `COc1ccc(N(Cc2cccnn2)c2cccc(C(=O)O)c2)cc1OC1CCCC1` [Compound 48], the melting point was 178.9 to 184.3 °C. `COc1ccc(N(CC2CCNCC2)c2cccc(C(=O)O)c2)cc1OC1CCCC1` [Compound 50] had a melting point of 228.8 to 232.1 °C. Regarding `CCOc1ccc(N(Cc2cncs2)c2ccc(C(=O)O)cc2)cc1OCC` [Compound 170], the melting point lay in the range of 77 to 79 °C.

Take `O=C(O)c1ccc(N(Cc2cnccn2)c2ccc(OC(F)F)c(OCC3CC3)c2)cc1` [Compound 157]: the melting point fell in the range of 81.2 to 82.3 °C. In turn, `COc1cc(N(Cc2cncs2)c2ccc(C(=O)O)cc2)ccc1OC(F)F` [Compound 120] had a melting point of 164.9 to 165.3 °C. Next, `O=C(O)c1ccc(N(Cc2cncnc2)c2ccc(OC(F)F)c(OCc3ccccc3)c2)cc1` [Compound 214]: 157.4 to 158.2 °C; `O=C(O)c1ccc(N(Cc2cncnc2)c2ccc(OC(F)F)c(OCC3CC3)c2)cc1` [Compound 168]: 265.1 to 266.6 °C; `CCOc1cc(N(Cc2cncs2)c2ccc(C(=O)O)cc2)ccc1OC(F)F` [Compound 99]: 67 to 69.3 °C. Next, `COc1ccc(N(Cc2cncnc2)c2ccc(C(=O)O)cc2)cc1OCC1CC1` [Compound 195]: 185.6 to 187.2 °C. `COc1cc(N(Cc2cncnc2)c2ccc(C(=O)O)cc2)ccc1OC(F)F` [Compound 153] returned a melting point of 191.3 to 191.5 °C. As to `CC(C)Oc1cc(N(Cc2cncs2)c2ccc(C(=O)O)cc2)ccc1OC(F)F` [Compound 106], the melting point is 158 to 158.5 °C. Under `COc1ccc(N(Cc2cnco2)c2ccc(C(=O)O)cc2)cc1OCC1CC1` [Compound 183] stands 160 to 161.7 °C; under `CCOc1cc(N(Cc2cnco2)c2cccc(C(=O)O)c2)ccc1OC` [Compound 200], 158 to 159.8 °C; under `COc1ccc(N(Cc2cncs2)c2cccc(C(=O)O)c2)cc1OC1CCCC1` [Compound 35], 65.6 to 70.6 °C. Under `COc1ccc(N(Cc2cncs2)c2ccc(C(=O)O)cc2)cc1O[C@@H]1CCOC1` [Compound 71] stands 60.3 to 60.8 °C; under `COc1ccc(N(Cc2cccnc2)c2ccc(C3NC(=O)NC3=O)cc2)cc1OC1CCCC1` (stereo not shown) [Compound 245], 108 to 112.5 °C; under `O=C(O)c1ccc(N(Cc2cncnc2)c2ccc(OC(F)F)c(OC3CCC3)c2)cc1` [Compound 205], 135.1 to 136.3 °C. On to `CNS(=O)(=O)c1ccc(N(Cc2cncs2)c2ccc(OC(F)F)c(OC(F)F)c2)cc1` [Compound 165], for which the melting point was 105.5 to 106.4 °C. Under `O=C(O)c1cccc(N(Cc2cncs2)c2ccc(OC(F)F)c(OC3CCCC3)c2)c1` [Compound 110] stands 56.3 to 58 °C; under `O=C1NC(=O)C(c2cccc(N(Cc3cncs3)c3ccc(OC(F)F)c(OC(F)F)c3)c2)N1` (stereo not shown) [Compound 257], 63.1 to 82.3 °C.

`CCOc1cc(N(Cc2cncnc2)c2ccc(C(=O)O)cc2)ccc1OC` [Compound 196] returned a melting point of 190.9 to 191.9 °C. `CCOc1cc(-c2ncc(CN(c3ccc(C(=O)O)cc3)c3ccc(OC(F)F)c(OCC)c3)o2)ccc1OC(F)F` [Compound 273] showed a melting point of 178.4 to 178.9 °C.

`COc1cc(N(Cc2cnccn2)c2ccc(C(=O)O)cc2)ccc1OC(F)F` [Compound 154] gave a melting point of 157.2 to 157.7 °C.

Molecule `COc1ccc(N(Cc2cccnc2)c2cccc(C3NC(=O)NC3=O)c2)cc1OC1CCCC1` (stereo not shown) [Compound 239] came in with a melting point of 99.7 to 105 °C. `O=C(O)c1ccc(N(Cc2cccnn2)c2ccc(OC(F)F)c(OC(F)F)c2)cc1` [Compound 74] displayed a melting point of 162.6 to 164.8 °C. Under `CCOc1cc(N(Cc2cnco2)c2ccc(C(=O)O)cc2)ccc1OC` [Compound 181] stands 175.6 to 176.9 °C. Next, `COc1ccc(N(Cc2cn[nH]c2)c2ccc(C(=O)O)cc2)cc1OC1CCCC1` [Compound 39]: 108.9 to 112.3 °C; `COc1ccc(N(Cc2cncnc2)c2ccc(C(=O)O)cc2)cc1OC1CCCC1` [Compound 43]: 156.6 to 159.8 °C. Next, `CC(C)Oc1cc(N(Cc2cccnc2)c2ccc(C(=O)O)cc2)ccc1OC(F)F` [Compound 107]: 66.5 to 67.9 °C. `COc1ccc(N(Cc2cncs2)c2ccc(C(=O)O)cc2)cc1OCC1CC1` [Compound 72] displayed a melting point of 128.7 to 129.4 °C.

These data come from US20100029689A1, “PHOSPHODIESTERASE 4 INHIBITORS” (MEMORY PHARMACEUTICALS CORPORATION, priority 2008, published 2010).
